Laboratory results reported in US9326506B2, “Preparation method, agricultural composition and applications of natural brassinolide analogs” (CHENGDU NEWSUN CROPSCIENCE CO., LTD, priority 2012, dated 2016).

System: rice
Test: Low temperature assay on rice seedlings
Type: in vivo
How it was run: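 Nine-day-old etiolated rice seedlings (grown on water at 30 °C±2 °C, dark) immersed in brassinolide analogues at 1–0.0001 mg/L or pure water, held at 1–5 °C for 24 hr. Plant height, leaf area, root weight read at 3, 6, 9, 12 days; leaf and tiller number at 12 days.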

SMILES: CC(C)C[C@@H](O)[C@H](O)[C@@H](C)[C@H]1CCC2C3CC(=O)C4C[C@H](O)[C@H](O)C[C@]4(C)C3CC[C@@]21C (some centres unmarked) [BR5]
- Height (0.01 mg/l, 3 °C, 9 days): 7.5 cm
- Weight of root (0.01 mg/l, 3 °C, 9 days): 2.7 g
- Area of leaf (0.01 mg/l, 3 °C, 12 days): 13.2 cm^2
- Height (0.01 mg/l, 3 °C, 12 days): 7.9 cm
- Number of leaf (0.01 mg/l, 3 °C, 12 days): 3
- Number of tiller (0.01 mg/l, 3 °C, 12 days): 2
- Weight of root (0.01 mg/l, 3 °C, 12 days): 2.9 g
- Area of leaf (0.01 mg/l, 4 °C, 3 days): 10.8 cm^2
- Height (0.01 mg/l, 4 °C, 3 days): 7.1 cm
- Weight of root (0.01 mg/l, 4 °C, 3 days): 2.5 g
- Area of leaf (0.01 mg/l, 4 °C, 6 days): 12.4 cm^2
- Height (0.01 mg/l, 4 °C, 6 days): 7.5 cm
- Weight of root (0.01 mg/l, 4 °C, 6 days): 2.6 g
- Area of leaf (0.01 mg/l, 4 °C, 9 days): 13.1 cm^2
- Height (0.01 mg/l, 4 °C, 9 days): 7.6 cm
- Weight of root (0.01 mg/l, 4 °C, 9 days): 2.9 g
- Area of leaf (0.01 mg/l, 4 °C, 12 days): 13.5 cm^2
- Height (0.01 mg/l, 4 °C, 12 days): 7.8 cm
- Number of leaf (0.01 mg/l, 4 °C, 12 days): 3
- Number of tiller (0.01 mg/l, 4 °C, 12 days): 2
- Weight of root (0.01 mg/l, 4 °C, 12 days): 3.0 g
- Area of leaf (0.01 mg/l, 5 °C, 3 days): 10.3 cm^2
- Height (0.01 mg/l, 5 °C, 3 days): 7.4 cm
- Weight of root (0.01 mg/l, 5 °C, 3 days): 2.8 g
- Area of leaf (0.01 mg/l, 5 °C, 6 days): 13.1 cm^2
- Height (0.01 mg/l, 5 °C, 6 days): 7.4 cm
- Weight of root (0.01 mg/l, 5 °C, 6 days): 3.0 g
- Area of leaf (0.01 mg/l, 5 °C, 9 days): 16.4 cm^2
- Height (0.01 mg/l, 5 °C, 9 days): 8 cm
- Weight of root (0.01 mg/l, 5 °C, 9 days): 3.4 g
- Area of leaf (0.01 mg/l, 5 °C, 12 days): 17 cm^2
- Height (0.01 mg/l, 5 °C, 12 days): 8.2 cm
- Number of leaf (0.01 mg/l, 5 °C, 12 days): 4
- Number of tiller (0.01 mg/l, 5 °C, 12 days): 3
- Weight of root (0.01 mg/l, 5 °C, 12 days): 3.6 g
- Area of leaf (0.1 mg/l, 1 °C, 3 days): 10.1 cm^2
- Height (0.1 mg/l, 1 °C, 3 days): 7.0 cm
- Weight of root (0.1 mg/l, 1 °C, 3 days): 2.8 g
- Area of leaf (0.1 mg/l, 1 °C, 6 days): 11 cm^2
- Height (0.1 mg/l, 1 °C, 6 days): 7.2 cm
- Weight of root (0.1 mg/l, 1 °C, 6 days): 3.0 g
- Area of leaf (0.1 mg/l, 1 °C, 9 days): 12 cm^2
- Height (0.1 mg/l, 1 °C, 9 days): 7.2 cm
- Weight of root (0.1 mg/l, 1 °C, 9 days): 3.4 g
- Area of leaf (0.1 mg/l, 1 °C, 12 days): 13.4 cm^2
- Height (0.1 mg/l, 1 °C, 12 days): 7.4 cm
- Number of leaf (0.1 mg/l, 1 °C, 12 days): 3
- Number of tiller (0.1 mg/l, 1 °C, 12 days): 3
- Weight of root (0.1 mg/l, 1 °C, 12 days): 3.4 g
- Area of leaf (0.1 mg/l, 2 °C, 3 days): 10.4 cm^2
- Height (0.1 mg/l, 2 °C, 3 days): 7.1 cm
- Weight of root (0.1 mg/l, 2 °C, 3 days): 2.8 g
- Area of leaf (0.1 mg/l, 2 °C, 6 days): 11.2 cm^2
- Height (0.1 mg/l, 2 °C, 6 days): 7.3 cm
- Weight of root (0.1 mg/l, 2 °C, 6 days): 3.0 g
- Area of leaf (0.1 mg/l, 2 °C, 9 days): 12.4 cm^2
- Height (0.1 mg/l, 2 °C, 9 days): 7.3 cm
- Weight of root (0.1 mg/l, 2 °C, 9 days): 3.1 g
- Area of leaf (0.1 mg/l, 2 °C, 12 days): 13.6 cm^2
- Height (0.1 mg/l, 2 °C, 12 days): 7.4 cm
- Number of leaf (0.1 mg/l, 2 °C, 12 days): 3
- Number of tiller (0.1 mg/l, 2 °C, 12 days): 3
- Weight of root (0.1 mg/l, 2 °C, 12 days): 3.2 g
- Area of leaf (0.1 mg/l, 3 °C, 3 days): 10.5 cm^2
- Height (0.1 mg/l, 3 °C, 3 days): 7.4 cm
- Weight of root (0.1 mg/l, 3 °C, 3 days): 2.5 g
- Area of leaf (0.1 mg/l, 3 °C, 6 days): 12 cm^2
- Height (0.1 mg/l, 3 °C, 6 days): 7.4 cm
- Weight of root (0.1 mg/l, 3 °C, 6 days): 2.7 g
- Area of leaf (0.1 mg/l, 3 °C, 9 days): 12.6 cm^2
- Height (0.1 mg/l, 3 °C, 9 days): 7.9 cm
- Weight of root (0.1 mg/l, 3 °C, 9 days): 2.7 g
- Area of leaf (0.1 mg/l, 3 °C, 12 days): 13.4 cm^2
- Height (0.1 mg/l, 3 °C, 12 days): 7.9 cm
- Number of leaf (0.1 mg/l, 3 °C, 12 days): 3
- Number of tiller (0.1 mg/l, 3 °C, 12 days): 2
- Weight of root (0.1 mg/l, 3 °C, 12 days): 2.9 g
- Area of leaf (0.1 mg/l, 4 °C, 3 days): 10.8 cm^2
- Height (0.1 mg/l, 4 °C, 3 days): 7.5 cm
- Weight of root (0.1 mg/l, 4 °C, 3 days): 2.5 g
- Area of leaf (0.1 mg/l, 4 °C, 6 days): 12.1 cm^2
- Height (0.1 mg/l, 4 °C, 6 days): 7.5 cm
- Weight of root (0.1 mg/l, 4 °C, 6 days): 2.7 g
- Area of leaf (0.1 mg/l, 4 °C, 9 days): 13.2 cm^2
- Height (0.1 mg/l, 4 °C, 9 days): 8 cm
- Weight of root (0.1 mg/l, 4 °C, 9 days): 2.9 g
- Area of leaf (0.1 mg/l, 4 °C, 12 days): 13.8 cm^2
- Height (0.1 mg/l, 4 °C, 12 days): 8 cm
- Number of leaf (0.1 mg/l, 4 °C, 12 days): 3
- Number of tiller (0.1 mg/l, 4 °C, 12 days): 2
- Weight of root (0.1 mg/l, 4 °C, 12 days): 3 g
- Area of leaf (0.1 mg/l, 5 °C, 3 days): 11 cm^2
- Height (0.1 mg/l, 5 °C, 3 days): 7.5 cm
- Weight of root (0.1 mg/l, 5 °C, 3 days): 2.9 g
- Area of leaf (0.1 mg/l, 5 °C, 6 days): 12.9 cm^2
- Height (0.1 mg/l, 5 °C, 6 days): 7.6 cm
- Weight of root (0.1 mg/l, 5 °C, 6 days): 3.2 g
- Area of leaf (0.1 mg/l, 5 °C, 9 days): 16.8 cm^2
- Height (0.1 mg/l, 5 °C, 9 days): 8 cm
- Weight of root (0.1 mg/l, 5 °C, 9 days): 3.5 g
- Area of leaf (0.1 mg/l, 5 °C, 12 days): 19 cm^2
- Height (0.1 mg/l, 5 °C, 12 days): 8.3 cm
- Number of leaf (0.1 mg/l, 5 °C, 12 days): 3
- Number of tiller (0.1 mg/l, 5 °C, 12 days): 2
- Weight of root (0.1 mg/l, 5 °C, 12 days): 4.1 g
- Area of leaf (1 mg/l, 1 °C, 3 days): 10 cm^2
- Height (1 mg/l, 1 °C, 3 days): 7.0 cm
- Weight of root (1 mg/l, 1 °C, 3 days): 2.6 g
- Area of leaf (1 mg/l, 1 °C, 6 days): 11.2 cm^2
- Height (1 mg/l, 1 °C, 6 days): 7.3 cm
- Weight of root (1 mg/l, 1 °C, 6 days): 3.1 g
- Area of leaf (1 mg/l, 1 °C, 9 days): 12.4 cm^2
- Height (1 mg/l, 1 °C, 9 days): 7.3 cm
- Weight of root (1 mg/l, 1 °C, 9 days): 3.1 g
- Area of leaf (1 mg/l, 1 °C, 12 days): 13 cm^2
- Height (1 mg/l, 1 °C, 12 days): 7.9 cm
- Number of leaf (1 mg/l, 1 °C, 12 days): 3
- Number of tiller (1 mg/l, 1 °C, 12 days): 3
- Weight of root (1 mg/l, 1 °C, 12 days): 3.7 g
- Area of leaf (1 mg/l, 2 °C, 3 days): 10.2 cm^2
- Height (1 mg/l, 2 °C, 3 days): 7.1 cm
- Weight of root (1 mg/l, 2 °C, 3 days): 2.6 g
- Area of leaf (1 mg/l, 2 °C, 6 days): 11.7 cm^2
- Height (1 mg/l, 2 °C, 6 days): 7.2 cm
- Weight of root (1 mg/l, 2 °C, 6 days): 3.0 g
- Area of leaf (1 mg/l, 2 °C, 9 days): 12.6 cm^2
- Height (1 mg/l, 2 °C, 9 days): 7.2 cm
- Weight of root (1 mg/l, 2 °C, 9 days): 3.2 g
- Area of leaf (1 mg/l, 2 °C, 12 days): 12.8 cm^2
- Height (1 mg/l, 2 °C, 12 days): 7.8 cm
- Number of leaf (1 mg/l, 2 °C, 12 days): 3
- Number of tiller (1 mg/l, 2 °C, 12 days): 3
- Weight of root (1 mg/l, 2 °C, 12 days): 3.7 g
- Area of leaf (1 mg/l, 3 °C, 3 days): 10.4 cm^2
- Height (1 mg/l, 3 °C, 3 days): 7.2 cm
- Weight of root (1 mg/l, 3 °C, 3 days): 2.5 g
- Area of leaf (1 mg/l, 3 °C, 6 days): 12 cm^2
- Height (1 mg/l, 3 °C, 6 days): 7.5 cm
- Weight of root (1 mg/l, 3 °C, 6 days): 2.6 g
- Area of leaf (1 mg/l, 3 °C, 9 days): 12.1 cm^2
- Height (1 mg/l, 3 °C, 9 days): 7.6 cm
- Weight of root (1 mg/l, 3 °C, 9 days): 2.8 g
- Area of leaf (1 mg/l, 3 °C, 12 days): 13 cm^2
- Height (1 mg/l, 3 °C, 12 days): 8.1 cm
- Number of leaf (1 mg/l, 3 °C, 12 days): 3
- Number of tiller (1 mg/l, 3 °C, 12 days): 2
- Weight of root (1 mg/l, 3 °C, 12 days): 2.9 g
- Area of leaf (1 mg/l, 4 °C, 3 days): 10.9 cm^2
- Height (1 mg/l, 4 °C, 3 days): 7.2 cm
- Weight of root (1 mg/l, 4 °C, 3 days): 2.5 g
- Area of leaf (1 mg/l, 4 °C, 6 days): 12.6 cm^2
- Height (1 mg/l, 4 °C, 6 days): 7.5 cm
- Weight of root (1 mg/l, 4 °C, 6 days): 2.7 g
- Area of leaf (1 mg/l, 4 °C, 9 days): 13.2 cm^2
- Height (1 mg/l, 4 °C, 9 days): 7.8 cm
- Weight of root (1 mg/l, 4 °C, 9 days): 3.1 g
- Area of leaf (1 mg/l, 4 °C, 12 days): 13.4 cm^2
- Height (1 mg/l, 4 °C, 12 days): 8.2 cm
- Number of leaf (1 mg/l, 4 °C, 12 days): 3
- Number of tiller (1 mg/l, 4 °C, 12 days): 2
- Weight of root (1 mg/l, 4 °C, 12 days): 3.2 g
- Area of leaf (1 mg/l, 5 °C, 3 days): 11.1 cm^2
- Height (1 mg/l, 5 °C, 3 days): 7.3 cm
- Weight of root (1 mg/l, 5 °C, 3 days): 2.9 g
- Area of leaf (1 mg/l, 5 °C, 6 days): 13.1 cm^2
- Height (1 mg/l, 5 °C, 6 days): 7.7 cm
- Weight of root (1 mg/l, 5 °C, 6 days): 3.5 g
- Area of leaf (1 mg/l, 5 °C, 9 days): 18 cm^2
- Height (1 mg/l, 5 °C, 9 days): 8 cm
- Weight of root (1 mg/l, 5 °C, 9 days): 3.6 g
- Area of leaf (1 mg/l, 5 °C, 12 days): 20 cm^2
- Height (1 mg/l, 5 °C, 12 days): 8.4 cm
- Number of leaf (1 mg/l, 5 °C, 12 days): 3
- Number of tiller (1 mg/l, 5 °C, 12 days): 2
- Weight of root (1 mg/l, 5 °C, 12 days): 4.5 g
- Effects on resistance to low temperature compared among analogues (in vivo): more than those of BR2, BR3 and BR4
